pIC50, pKi: −log10 of the molar value.

The values that follow come from patent US20050256161A1, “Melanin concentrating hormone receptor antagonists” (priority 2003, published 2005).

Experiment [1] has as its target T1, human MCH 1 receptor (hMCH1R) (Homo sapiens, UniProt Q99705).
T1 construct: expressed in transfected cells; host or cells: HEK 293 (membrane preparation)
The experiment is described as follows: Ligand binding assay (125I native-MCH), hMCH. The settings on record: hMCH1R expressed in HEK 293, membranes, 0.2 nM 125I native-MCH. On the procedure: (§1) Human embryonic kidney cells (293 total) expressing either human, rat, or mouse MCH receptor were harvested from 150 mm culture dishes using PBS. Spinning at 1500 rpm for 2 minutes initially pelleted cells. The resulting pellet was then homogenized in 15 mL ice cold sucrose buffer (25 mM HEPES, 0.3 M sucrose, pH 7.4) with a motorized, glass fitted, Teflon® homogenizer. The homogenate was centrifuged at 48,000×g at 4° C. for 10 minutes, resuspended in 15 mL assay buffer (25 mM HEPES, 10 mM MgCl2, 0.2% BSA, 0.1 mg/mL STI, 0.1 mg/mL Pefabloc®, 1 μM Phosphoramidon, pH 7.4) with a Tissue-Tearor® (Biospec Products) and centrifuged again at 48,000×g for 10 minutes. The pellet was homogenized for a third time in 15 mL assay buffer using the Tissue-Tearor® and again centrifuged at 48,000×g for 10 minutes. The resulting pellet was resuspended in assay buffer at a wet weight concentration of 10-20 mg/mL.
(§2) Binding assays were determined as described below using mouse, rat or human MCH 1 receptors (mMCH1R, rMCH1R, and hMCH1R, respectively) expressed in HEK 293; IC50 values were calculated.
(§3) Binding assays were performed in 96-well U-bottom plates. Membranes (100 μg tissue) were incubated at 30° C. for 90 minutes in assay buffer with various peptides in the presence of 0.2 nM 125I native-MCH (Perkin-Elmer Life Sciences, Boston, Mass.) in 100 μL total volume. Non-specific binding was assessed in the presence of 1 μM cold native-MCH. The reaction was terminated by rapid filtration through Unfilter-96 GF/C glass fiber filter plates (FilterMate® 196 Harvester, Packard Instrument Co., Meriden, Conn.) pre-soaked in PBS/0.5% BSA, followed by three washes with 300 μL ice-cold water. Bound radioactivity was determined using a TopCount® microplate scintillation and luminescence counter (Packard Instrument Co., Meriden, Conn.). Nonlinear regression analyses of drug concentration curves were performed using GraphPad Prism® (GraphPad Software, Inc., San Diego, Calif.).

Experiment [2] has as its target T2, rat MCH 1 receptor (rMCH1R) (Rattus norvegicus, UniProt P97639).
T2 construct: expressed in transfected cells; host or cells: HEK 293 (membrane preparation)
Description: Ligand binding assay (125I native-MCH), rMCH. The settings on record: rMCH1R expressed in HEK 293, membranes, 0.2 nM 125I native-MCH. The protocol:
as §1, §2, §3

Another experiment addresses T3, rat MCH1 receptor (Rattus norvegicus, UniProt P97639).
T3 construct: expressed in transfected cells
The experiment is described as follows: rMCH FLIPR calcium mobilization functional assay. It is filed as cell-based. The settings on record: CHOK1-Gqi cells. On the procedure:
Pharmacological analyses were conducted using either a HT-PS100 device (Axiom Biotechnologies, San Diego, Calif.), which provides high-resolution dose-response fluorometric measurements of [Ca^++]i mobilization, or using a FLIPR® device (Molecular Devices, Sunnyvale, Calif.).
Materials: Pharmacological analysis was conducted using a FLIPR® device (Molecular Devices, Sunnyvale, Calif.). CHOK1-Gqi cells were stably transfected with the rat MCH1 receptor and maintained under G418 antibiotic pressure. FLIPR® assay buffer consisted of phenol red-free DMEM+2.5 mM probenecid. MCH peptide (Amgen, Inc.) was reconstituted in assay buffer and served as the positive agonist control for all experiments. Test compounds were prepared as 10 mM stocks in 100% DMSO and diluted to a top end working concentration of 10 μM in 96 well black, flat bottom, collagen-I coated plates (Becton Dickinson, Bedford, Mass.).
Methods: CHOK1-Gqi cells stably expressing MCH1R were maintained in Dulbeco's modified Eagle's medium (GIBCO/Life Technologies, Rockville, Md.) supplemented with 2 mM glutamine and 10% dialyzed fetal bovine serum (HyClone, Logan, Utah) at 37° C., 5% CO2. Cells were harvested by 10′ treatment with Versene (GIBCO/Life Technologies) followed by trituration, washing twice with cold (4° C.) hybridoma medium (Serum/Protein free, with L-glutamine, sodium bicarbonate, MOPS buffer) (Sigma-Aldrich Corp, St. Louis, Mo.) and replated onto 96 well black, flat bottom, collagen-I coated plates to a density of 10,000 cells/well. The cells were then loaded with the fluorescent calcium indicator Fura-2 (Molecular Probes, Eugene, Oreg.) at 1.6 μM for 60′ at room temperature. The loaded cells were then washed twice with 90 μl/well of wash buffer (1×HBSS, 20 mM HEPES, 2.5 mM probenecid).
Receptor-stimulated intracellular calcium responses were detected using FLIPR® by monitoring increases in the Fura-2 fluorescence response.
Test compounds were screened for MCH1R activity in the FLIPR® for both agonist and antagonist action. Agonist mode challenges were conducted at a maximum gradient concentration of 1 μM. Antagonist activity was tested by 10 min pre-incubation of cells at a compound concentration of defined to be 300× the EC50 of MCH (typically 1 μM), with subsequent introduction of MCH at a concentration 5-fold of EC50 as determined in preliminary experiments.
Schild experiments were conducted on the FLIPR® for selected compounds by co-administering antagonist compounds together with MCH peptide. Several fixed concentrations of antagonist compounds were prepared in 10-fold increments, and presented to the cells in a gradient of increasing MCH concentration. Values for compound pA2 were calculated by linear regression of MCH EC50s as a function of antagonist concentration.

T1 sequence (Q99705 whole entry): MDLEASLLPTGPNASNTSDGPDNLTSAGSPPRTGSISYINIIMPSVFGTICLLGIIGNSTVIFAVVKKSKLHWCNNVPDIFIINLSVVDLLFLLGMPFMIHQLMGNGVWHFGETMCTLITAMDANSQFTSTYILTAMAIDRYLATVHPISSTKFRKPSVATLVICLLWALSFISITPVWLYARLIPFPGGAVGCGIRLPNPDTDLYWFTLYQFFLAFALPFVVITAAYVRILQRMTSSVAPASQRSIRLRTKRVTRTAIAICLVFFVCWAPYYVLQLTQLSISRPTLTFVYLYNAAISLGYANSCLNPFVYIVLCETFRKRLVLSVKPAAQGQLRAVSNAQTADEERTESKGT
T3 sequence (P97639 whole entry): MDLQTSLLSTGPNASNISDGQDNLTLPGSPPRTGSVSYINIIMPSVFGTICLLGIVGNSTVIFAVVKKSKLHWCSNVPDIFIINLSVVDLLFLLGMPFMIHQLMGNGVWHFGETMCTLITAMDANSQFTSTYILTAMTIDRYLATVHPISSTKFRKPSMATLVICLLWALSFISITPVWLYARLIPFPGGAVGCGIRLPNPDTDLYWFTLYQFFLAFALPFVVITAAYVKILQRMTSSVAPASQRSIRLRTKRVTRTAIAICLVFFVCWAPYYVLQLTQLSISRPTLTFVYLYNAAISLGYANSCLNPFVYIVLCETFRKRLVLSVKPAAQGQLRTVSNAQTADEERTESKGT
T2 sequence (P97639 whole entry): as above

For the compound `Cc1ccc(Oc2ccc(C(=O)NCCN3CCCC3)cc2NC(=O)Cc2ccccc2)cc1C` [Compound 13, 4-(3,4-dimethylphenoxy)-3-phenylacetylarnino-N-(2-pyrrolidin-1-yl-ethyl)benzamide], the pIC50 in experiment [1] (threshold 100 μM or less) and in experiment [2] (threshold 100 μM or less) was at least 4.00 throughout.
Take `COc1ccccc1NC(=O)Nc1cc(C(=O)NCCN2CCCC2)ccc1Oc1ccc(C)c(C)c1` [Compound 30, 4-(3,4-dimethylphenoxy)-3-[3-(2-methoxyphenyl)ureido]-N-(2-pyrroliidin-1-yl-ethyl)benzamide]: the negative logarithm of the IC50 (pIC50) in experiment [1] (threshold 100 μM or less) and in experiment [2] (threshold 100 μM or less) was at least 4.00 throughout. The negative logarithm of the Ki (pKi) at rat MCH1 receptor (threshold 100 μM or less) is at least 4.00.
Turning to `Cc1ccc(Oc2ccc(C(=O)NCCN3CCCC3)cc2NC(=O)CCC2CCCC2)cc1C` [Compound 12, 3-(3-cyclopentylpropionylamino)-4-(3,4-dimethylphenoxy)-N-(2-pyrrolidin-1-yl-ethyl)benzamide], the negative-log IC50 (pIC50) in experiment [1] (threshold 100 μM or less) and in experiment [2] (threshold 100 μM or less) was at least 4.00 each time.
On to `Cc1ccc(Oc2ccc(C(=O)NCCN3CCCC3)cc2NC(=O)Nc2ccc(Oc3ccccc3)cc2)cc1C` [Compound 32, 4-(3,4-dimethylphenoxy)-3-[3-(4-phenoxyphenyl)ureido]-N-(2-pyrrolidin-1-yl-ethyl)benzamide], for which the negative-log IC50 (pIC50) in experiment [1] (threshold 100 nM or less) is at least 7.00; in experiment [1] (threshold 100 μM or less), at least 4.00; in experiment [2] (threshold 100 μM or less), at least 4.00. In addition, the pKi at rat MCH1 receptor (threshold 100 nM or less) was at least 7.00; on rat MCH1 receptor (threshold 100 μM or less), at least 4.00.
As for `Cc1ccc(Oc2ccc(C(=O)NCCN)cc2NC(=O)CCc2ccccc2)cc1C` [Compound 20, N-(2-aminoethyl)-4-(3,4-dimethylphenoxy)-3-(3-phenylpropionylamino)benzamide], the negative-log IC50 (pIC50) in experiment [1] (threshold 100 μM or less) is at least 4.00.
As for `Cc1ccc(Oc2ccc(C(=O)NCCN3CCCC3)cc2NC(=O)N(c2ccccc2)c2ccccc2)cc1C` [Compound 42, 4-(3,4-dimethylphenoxy)-3-(3,3-diphenylureido)-N-(2-pyrrolidin-1-yl-ethyl)benzamide], the pIC50 in experiment [1] (threshold 100 μM or less) and in experiment [2] (threshold 100 μM or less) was at least 4.00 each time.
Turning to `O=C(Nc1cc(F)cc(F)c1)Nc1cc(C(=O)NCCN2CCCC2)ccc1Oc1ccc(Cl)c(Cl)c1` [Compound 66, 4-(3,4-dichlorophenoxy)-3-[3-(3,5-difluorophenyl)ureido]-N-(2-pyrrolidin-1-yl-ethyl)benzamide], the negative-log IC50 (pIC50) in experiment [1] (threshold 100 nM or less) was at least 7.00; in experiment [1] (threshold 100 μM or less), at least 4.00; in experiment [2] (threshold 100 nM or less), at least 7.00; in experiment [2] (threshold 100 μM or less) it was at least 4.00.
`Cc1ccc(Oc2ccc(C(=O)NCCN3CCCC3)cc2NC(=O)/C=C/c2ccccc2)cc1C` [Compound 15, 4-(3,4-dimethylphenoxy)-3-(3-phenyl-acryloylamino)-N-(2-pyrrolidin-1-yl-ethyl)benzamide]: the pIC50 in experiment [1] (threshold 100 μM or less) and in experiment [2] (threshold 100 μM or less) was at least 4.00 throughout. For the same compound, the pKi on rat MCH1 receptor (threshold 100 nM or less) is at least 7.00; on rat MCH1 receptor (threshold 100 μM or less) it was at least 4.00.
Consider `Cc1ccc(Oc2ccc(C(=O)NCCN3CCCC3)cc2NC(=O)Nc2ccc(Cl)cc2Cl)cc1C` [Compound 31, 3-[3-(2,4-dichlorophenyl)ureido]-4-(3,4-dimethylphenoxy)-N-(2-pyrrolidin-1-yl-ethyl)benzamide], for which the pIC50 in experiment [1] (threshold 100 nM or less) is at least 7.00; in experiment [1] (threshold 100 μM or less), at least 4.00; in experiment [2] (threshold 100 nM or less), at least 7.00; in experiment [2] (threshold 100 μM or less), at least 4.00. Moreover, the pKi at rat MCH1 receptor (threshold 100 nM or less) is at least 7.00; on rat MCH1 receptor (threshold 100 μM or less), at least 4.00.
For `CCNC(=O)Nc1cc(C(=O)NCCN2CCCC2)ccc1Oc1ccc(C)c(C)c1` [Compound 18, 4-(3,4-dimethylphenoxy)-3-(3-ethylureido)-N-(2-pyrrolidin-1-yl-ethyl)benzamide], the pIC50 in experiment [1] (threshold 100 μM or less) and in experiment [2] (threshold 100 μM or less) was at least 4.00 each time.
Turning to `CC(=O)Nc1cc(C(=O)NCCN2CCCC2)ccc1Oc1ccc(C)c(C)c1` [Compound 10, 3-acetylamino-4-(3,4-dimethylphenoxy)-N-(2-pyrrolidin-1-yl-ethyl)benzamide], the pIC50 in experiment [1] (threshold 100 μM or less) and in experiment [2] (threshold 100 μM or less) was at least 4.00 each time.
Turning to `Cc1ccc(Oc2ccc(C(=O)NCCN3CCCC3)cc2NC(=O)[C@@H]2C[C@H]2c2ccccc2)cc1C` (stereo in doubt) [Compound 16, 4-(3,4-dimethylphenoxy)-3-[(2-phenyl-cyclopropanecarbonyl)amino]-N-(2-pyrrolidin-1-yl-ethyl)benzamide], the negative-log IC50 (pIC50) in experiment [1] (threshold 100 μM or less) and in experiment [2] (threshold 100 μM or less) was at least 4.00 each time.
For the compound `Cc1ccc(Oc2ccc(C(=O)NCCN3CCCC3)cc2NC(=O)c2ccc3ccccc3c2)cc1C` [Compound 17, naphthalene-2-carboxylic acid [2-(3,4-dimethylphenoxy)-5-(2-pyrrolidin-1-yl-ethylcarbamoyl)phenyl]amide], the pIC50 in experiment [1] (threshold 100 μM or less) and in experiment [2] (threshold 100 μM or less) was at least 4.00 each time.
The compound `O=C(NCCN1CCCC1)c1ccc(Oc2ccccc2)cc1` [Compound 8, 4-(phenyloxy)-N-(2-(1-pyrrolidinyl)ethyl)benzamide] showed a pIC50 in experiment [1] (threshold 100 μM or less) of at least 4.00.
For `Cc1ccc(Oc2ccc(C(=O)NCCN3CCCC3)cc2NC(=O)Nc2ccc(-c3ccccc3)cc2)cc1C` [Compound 33], the negative logarithm of the IC50 (pIC50) was at least 7.00 in experiment [1] (threshold 100 nM or less), at least 4.00 in experiment [1] (threshold 100 μM or less) and at least 4.00 in experiment [2] (threshold 100 μM or less). Besides, the negative logarithm of the Ki (pKi) at rat MCH1 receptor (threshold 100 μM or less) is at least 4.00.
Regarding `Cc1ccc(Oc2ccc(C(=O)NCCN3CCCC3)cc2NC(=O)Nc2cccc(F)c2)cc1C` [Compound 39, 4-(3,4-dimethylphenoxy)-3-[3-(3-fluorophenyl)ureido]-N-(2-pyrrolidin-1-yl-ethyl)benzamide], the negative-log IC50 (pIC50) was at least 7.00 in experiment [1] (threshold 100 nM or less), at least 4.00 in experiment [1] (threshold 100 μM or less), at least 7.00 in experiment [2] (threshold 100 nM or less) and at least 4.00 in experiment [2] (threshold 100 μM or less). The results for the negative logarithm of the Ki (pKi) at rat MCH1 receptor (threshold 100 nM or less) and at rat MCH1 receptor (threshold 100 μM or less) were at least 7.00 and at least 4.00, respectively.
With `O=C(Nc1cccc(F)c1)Nc1cc(C(=O)NCCN2CCCC2)ccc1Oc1ccccc1` [Compound 61, 3-[3-(3-fluorophenyl)ureido]-4-phenoxy-N-(2-pyrrolidin-1-yl-ethyl)benzamide], the negative-log IC50 (pIC50) is at least 7.00 in experiment [2] (threshold 100 nM or less) and at least 4.00 in experiment [2] (threshold 100 μM or less).
Turning to `O=C(CCc1ccccc1)Nc1cc(C(=O)NCCN2CCCC2)ccc1Oc1ccc2ccccc2c1` [Compound 22], on rat MCH1 receptor (threshold 100 μM or less), the negative logarithm of the Ki (pKi) was at least 4.00.
With `Cc1ccc(Oc2ccc(C(=O)NCCN3CCCC3)cc2NC(=O)N(C)c2ccccc2)cc1C` [Compound 43, 4-(3,4-dimethylphenoxy)-3-(3-methyl-3-phenylureido)-N-(2-pyrrolidin-1-yl-ethyl)benzamide], the pIC50 in experiment [1] (threshold 100 μM or less) and in experiment [2] (threshold 100 μM or less) was at least 4.00 throughout.

A word on the pIC50: it is the IC50 on a negative log10 scale, so that one unit is a factor of ten. Read a high pIC50 as a small IC50. In general, pKi refers to −log10 of the Ki, conventionally taken in molar units.
